Test results: PubChem BioAssay (NCI)
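Tested at 5 concentrations; 48 h exposure; 96-well plates; endpoints linearly interpolated, else capped at highest concentration. At the GI50, growth is halved. TGI: total growth inhibition.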

Columns and labels:
Experiment in all cases: NCI-60 cell line screen, 48 h
NCI-H226 lung = tested on: NCI-H226 lung
ACHN renal = tested on: ACHN renal
SR leukemia = tested on: SR leukemia
U251 CNS = tested on: U251 CNS
SF-268 CNS = tested on: SF-268 CNS
HT29 colon = tested on: HT29 colon
OVCAR-4 ovarian = tested on: OVCAR-4 ovarian
KM12 colon = tested on: KM12 colon
PC-3 prostate = tested on: PC-3 prostate
MDA-MB-231 breast = tested on: MDA-MB-231 breast

SMILES | GI50 (NCI-H226 lung) | TGI (NCI-H226 lung) | GI50 (ACHN renal) | TGI (ACHN renal) | GI50 (SR leukemia) | TGI (SR leukemia) | GI50 (U251 CNS) | TGI (U251 CNS) | GI50 (SF-268 CNS) | TGI (SF-268 CNS) | GI50 (HT29 colon) | TGI (HT29 colon) | GI50 (OVCAR-4 ovarian) | TGI (OVCAR-4 ovarian) | GI50 (KM12 colon) | TGI (KM12 colon) | GI50 (PC-3 prostate) | TGI (PC-3 prostate) | GI50 (MDA-MB-231 breast) | TGI (MDA-MB-231 breast)
O=S(=O)(NC1=NCCN1C(=S)SN1CCn2c1nsc2=S)c1ccc(Oc2ccccc2)cc1 | > 100 µM | > 100 µM | 81.3 µM | > 100 µM | 3700 nM | 45.8 µM | > 100 µM | > 100 µM | 57.3 µM | > 100 µM | 54.7 µM | > 100 µM | 79.1 µM | > 100 µM | 39.7 µM | > 100 µM | 56000 nM | > 100 µM | 37.8 µM | > 100 µM
CCCCC(=O)N(c1ccc(Nc2c3ccccc3nc3cc([N+](=O)[O-])ccc23)cc1)S(C)(=O)=O | 8 µM | 32.9 µM | 3.85 µM | > 88.7 µM | 1970 nM | > 42.6 µM | 5.32 µM | > 59.1 µM | 6.58 µM | > 77.7 µM | 13.6 µM | 60.3 µM | 11.1 µM | 29.2 µM | 2.63 µM | 19.3 µM | 3640 nM | 54.2 µM | 12.8 µM | 49.5 µM
Nc1[nH]nc2nc(-c3cc(Cl)ccc3Cl)cc(-c3ccc(F)cc3)c12 | 22.6 µM | 60.6 µM | 31.9 µM | > 100 µM | 18000 nM | 69.2 µM | 21.6 µM | 44.8 µM | 18.2 µM | 43.6 µM | 32.5 µM | > 100 µM | 39.2 µM | > 100 µM | 22.6 µM | 58 µM | 28300 nM | 90.3 µM | 19.9 µM | 61.1 µM
CC12OC(CC(O)C1O)n1c3ccccc3c3c4c(c5c6ccccc6n2c5c31)C(=O)N(CCN1CCOCC1)C4=O (stereo not given) | 1.11 µM | 4.01 µM | 0.526 µM | 1.69 µM | 176 nM | 6.76 µM | 0.604 µM | 5.65 µM | 1.08 µM | 7.87 µM | 0.968 µM | 6.83 µM | 2.2 µM | 12.3 µM | 1.25 µM | 6.5 µM | 1190 nM | 7.3 µM | 3.04 µM | 11.5 µM
C[C@@H](Nc1cc(F)cc(F)c1)c1cc(C(=O)N(C)C)cc2c(=O)cc(N3CCOCC3)oc12 | > 88.2 µM | > 100 µM | 3.51 µM | > 100 µM | 21900 nM | > 100 µM | 8.58 µM | > 100 µM | 22.4 µM | > 100 µM | 4.04 µM | > 100 µM | 26.1 µM | > 100 µM | > 46.1 µM | > 100 µM | 586 nM | > 100 µM | 24.7 µM | > 100 µM
COc1cc(OCc2ccccc2)c2c(CCC(=O)O)cc(=O)oc2c1 (tested in a mixture with another compound) |  | > 100 µM |  | > 100 µM |  | > 100 µM |  | > 100 µM |  | > 100 µM |  | > 100 µM |  | > 100 µM |  | > 100 µM |  | > 100 µM |  | > 100 µM
CCc1nc(C)cn1C(=O)OCc1nc2nc(Cl)nc(N3CCOCC3)c2[nH]1 | 1.84 µM | 4.11 µM | 0.854 µM | 2.09 µM | 288 nM | > 100 µM | 1.63 µM | 3.42 µM | 1.53 µM | 3.06 µM | 1 µM | 4.04 µM | 1.49 µM | 2.93 µM | 1.56 µM | 3.29 µM | 1250 nM | 3.01 µM | 1.39 µM | 2.83 µM
C=C1c2nc3ccccc3n2C=C(c2cccc(Cl)c2)N1Cc1ccc(OC)cc1 | 4.5 µM | 30 µM | 1.11 µM | > 100 µM | 274 nM | 1.31 µM | 0.768 µM | > 100 µM | 1.05 µM | > 57.2 µM | 7.15 µM | 53.2 µM | 1.83 µM | > 100 µM | 1.76 µM | 16.6 µM | 2210 nM | > 70.3 µM | 0.964 µM | > 100 µM
COc1ccc(OC)c(Nc2nc3nonc3nc2Nc2cccc(Br)c2)c1 | 0.588 µM | 40.2 µM | 0.927 µM | 13.3 µM | 2360 nM | 10.9 µM | 0.577 µM | 11.7 µM | 0.982 µM | > 100 µM | 1.13 µM | > 100 µM | 0.867 µM | > 100 µM | 1.24 µM | > 100 µM | 454 nM | > 100 µM | 1.06 µM | 10.7 µM
COc1ccc(Cn2cc(COc3cc(/C=C/C(=O)c4cc(OC)c(OC)c(OC)c4)ccc3OC)nn2)cc1 | 2.91 µM | 83.1 µM | 4.47 µM | > 100 µM | 2700 nM | > 100 µM | 3.8 µM | > 100 µM | 3.75 µM | > 100 µM | 3.65 µM | 9.68 µM | 7.04 µM | > 100 µM | 3.23 µM | > 100 µM | 3630 nM | > 100 µM | 4.62 µM | > 100 µM
Oc1ccc2c(=S)cc(-c3ccc(Br)cc3)oc2c1O | 7.22 µM | 39.4 µM | 2.35 µM | 11.8 µM | 2540 nM | 38.1 µM | 2.44 µM | 8.93 µM | 2.18 µM | > 100 µM | 4.56 µM | 25.9 µM | 2.03 µM | > 100 µM | 3.35 µM | 25.6 µM | 2920 nM | 17.1 µM | 1.81 µM | 8.4 µM
Cc1ccc(N(C=O)c2c([N+](=O)[O-])cc([N+](=O)[O-])c3c2=[N+]([O-])CN=3)cc1 |  | > 100 µM |  | 64 µM |  | > 100 µM |  | 79.9 µM |  | > 100 µM |  | > 100 µM |  | > 100 µM |  | > 100 µM |  | 47.3 µM |  | 54.5 µM
O=C1C=C(NCCO)c2nccc3c2c1nc1ccccc13 | 14.8 µM | 59.5 µM | 16.3 µM | > 100 µM | 6760 nM | > 100 µM | 23.4 µM | > 100 µM | 26.4 µM | > 100 µM | 26.9 µM | > 100 µM | 41.3 µM | > 100 µM | 21 µM | > 100 µM | 27300 nM | > 100 µM | 24.5 µM | > 100 µM
